Target: PI3K (Homo sapiens, UniProt P42336)
Assay: Fluorescence polarization assay for PI3K;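 note: PI3K kinase reaction on PIP2 with ATP, 30-60 min, product sensed by GST-GRP with red probe in fluorescence polarization (mP), controls without enzyme and at zero time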
Format: biochemical
Details: PI3Kα; read-out: PI3Kα IC50

Sequence of PI3K (P42336 whole entry): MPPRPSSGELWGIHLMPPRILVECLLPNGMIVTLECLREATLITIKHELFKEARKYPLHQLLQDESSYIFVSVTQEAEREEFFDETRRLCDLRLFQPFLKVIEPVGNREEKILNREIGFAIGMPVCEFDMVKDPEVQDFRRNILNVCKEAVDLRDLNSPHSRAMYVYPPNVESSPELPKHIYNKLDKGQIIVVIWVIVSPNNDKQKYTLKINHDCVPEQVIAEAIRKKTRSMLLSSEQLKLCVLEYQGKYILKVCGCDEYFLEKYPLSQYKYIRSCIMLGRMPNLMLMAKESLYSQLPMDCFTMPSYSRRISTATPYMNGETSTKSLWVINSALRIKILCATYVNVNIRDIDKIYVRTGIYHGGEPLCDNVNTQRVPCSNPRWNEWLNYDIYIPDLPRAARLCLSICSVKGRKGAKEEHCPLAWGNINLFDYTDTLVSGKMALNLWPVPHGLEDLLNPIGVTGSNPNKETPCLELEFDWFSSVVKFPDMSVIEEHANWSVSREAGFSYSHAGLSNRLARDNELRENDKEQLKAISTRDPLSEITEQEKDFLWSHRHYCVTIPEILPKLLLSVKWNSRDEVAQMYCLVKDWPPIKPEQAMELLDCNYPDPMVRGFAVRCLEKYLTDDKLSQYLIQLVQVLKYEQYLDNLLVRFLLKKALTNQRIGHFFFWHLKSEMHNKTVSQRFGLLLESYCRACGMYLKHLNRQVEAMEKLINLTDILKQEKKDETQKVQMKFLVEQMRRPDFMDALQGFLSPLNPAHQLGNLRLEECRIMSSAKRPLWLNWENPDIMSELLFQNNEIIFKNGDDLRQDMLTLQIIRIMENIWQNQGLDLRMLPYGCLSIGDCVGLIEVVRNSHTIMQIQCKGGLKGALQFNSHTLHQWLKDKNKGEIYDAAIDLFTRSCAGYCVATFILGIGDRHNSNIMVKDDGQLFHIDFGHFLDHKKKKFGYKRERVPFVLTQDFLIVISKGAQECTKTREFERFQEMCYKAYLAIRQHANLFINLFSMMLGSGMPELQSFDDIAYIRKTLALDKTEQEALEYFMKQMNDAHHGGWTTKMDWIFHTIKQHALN
Sequence of PI3K (P27986 whole entry partner): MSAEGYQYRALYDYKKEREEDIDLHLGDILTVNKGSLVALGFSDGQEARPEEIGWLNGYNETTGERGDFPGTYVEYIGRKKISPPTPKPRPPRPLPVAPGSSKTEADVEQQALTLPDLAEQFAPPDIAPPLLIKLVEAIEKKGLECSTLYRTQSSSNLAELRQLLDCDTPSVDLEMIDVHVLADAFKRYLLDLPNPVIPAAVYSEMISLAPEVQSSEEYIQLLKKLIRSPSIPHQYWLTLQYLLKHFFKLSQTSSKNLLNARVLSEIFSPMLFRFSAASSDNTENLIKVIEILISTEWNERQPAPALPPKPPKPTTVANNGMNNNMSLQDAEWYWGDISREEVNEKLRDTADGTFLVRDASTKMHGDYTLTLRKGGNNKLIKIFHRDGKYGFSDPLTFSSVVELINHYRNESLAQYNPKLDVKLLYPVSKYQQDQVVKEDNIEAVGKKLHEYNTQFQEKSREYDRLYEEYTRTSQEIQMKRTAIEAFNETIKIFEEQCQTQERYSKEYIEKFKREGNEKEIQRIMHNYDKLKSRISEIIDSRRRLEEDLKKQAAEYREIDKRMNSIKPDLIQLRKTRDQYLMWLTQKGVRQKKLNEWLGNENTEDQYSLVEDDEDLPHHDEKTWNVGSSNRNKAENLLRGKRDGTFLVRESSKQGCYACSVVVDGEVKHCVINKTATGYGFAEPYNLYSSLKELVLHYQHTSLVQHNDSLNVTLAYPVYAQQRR

Row | Compound | IC50 [nM]
1 | N#CNC(=O)Nc1ccc(-c2nc(N3CCOCC3)c3cnn(C4CCN(Cc5cccnc5)CC4)c3n2)cc1 [Compound 653, N′-cyano-N-(4-{4-morpholin-4-yl-1-[1-(pyridin-3-ylmethyl)piperidin-4-yl]-1H-pyrazolo[3,4-d]pyrimidin-6-yl}phenyl)carbamimidic acid] | 363
2 | N#CN=C(N)Nc1ccc(-c2nc(N3CCOCC3)c3cnn(C4CCN(C(=O)c5cccnc5)CC4)c3n2)cc1 [Compound 655, 2-cyano-1-(4-{4-morpholin-4-yl-1-[1-(pyridin-3-ylcarbonyl)piperidin-4-yl]-1H-pyrazolo[3,4-d]pyrimidin-6-yl}phenyl)guanidine] | 344
3 | CNC(=NC#N)Nc1ccc(-c2nc(N3CCOCC3)c3cnn(C4CCN(C(=O)c5cccnc5)CC4)c3n2)cc1 [Compound 656, 2-cyano-1-methyl-3-(4-{4-morpholin-4-yl-1-[1-(pyridin-3-ylcarbonyl)piperidin-4-yl]-1H-pyrazolo[3,4-d]pyrimidin-6-yl}phenyl)guanidine] | 382
4 | O=C(Nc1ccc(-c2nc(N3CCOCC3)c3cnn(C4CCN(C(=O)c5cccnc5)CC4)c3n2)cc1)NC1CC1 [Compound 659, 1-cyclopropyl-3-(4-{4-morpholin-4-yl-1-[1-(pyridin-3-ylcarbonyl)piperidin-4-yl]-1H-pyrazolo[3,4-d]pyrimidin-6-yl}phenyl)urea] | 357
5 | CNC(=O)Nc1ccc(-c2nc(N3CCOCC3)c3cnn(C4CCN(C(=O)c5ccncc5)CC4)c3n2)cc1 [Compound 661, 1-{4-[1-(1-isonicotinoylpiperidin-4-yl)-4-morpholin-4-yl-1H-pyrazolo[3,4-d]pyrimidin-6-yl]phenyl}-3-methylurea] | 160
6 | CNC(=O)Nc1ccc(-c2nc(N3CCOCC3)c3cnn(C4CCN(C(=O)c5cnccn5)CC4)c3n2)cc1 [Compound 666, 1-methyl-3-(4-{4-morpholin-4-yl-1-[1-(pyrazin-2-ylcarbonyl)piperidin-4-yl]-1H-pyrazolo[3,4-d]pyrimidin-6-yl}phenyl)urea] | 198
7 | CNC(=O)Nc1ccc(-c2nc(N3CCOCC3)c3cnn(C4CCN(Cc5ccncc5)CC4)c3n2)cc1 [Compound 670, 1-methyl-3-(4-{4-morpholin-4-yl-1-[1-(pyridin-4-ylmethyl)piperidin-4-yl]-1H-pyrazolo[3,4-d]pyrimidin-6-yl}phenyl)urea] | 112

Next, values leading:

Row | IC50 [nM] | Compound
8 | 4990 | Nc1cccc(-c2nc(N3CCOCC3)c3cnn(C4CCN(C(=O)c5cccnc5)CC4)c3n2)n1 [Compound 680, 6-{4-morpholin-4-yl-1-[1-(pyridin-3-ylcarbonyl)piperidin-4-yl]-1H-pyrazolo[3,4-d]pyrimidin-6-yl}pyridin-2-amine]
9 | 1010 | COC(=O)Nc1ccc(-c2nc(N3CCOCC3)c3cnn(C4CCN(C(=O)c5ccccc5)CC4)c3n2)cc1 [Compound 686, methyl {4-[1-(1-benzoylpiperidin-4-yl)-4-morpholin-4-yl-1H-pyrazolo[3,4-d]pyrimidin-6-yl]phenyl}carbamate]
10 | 989 | COC(=O)Nc1ccc(-c2nc(N3CCOCC3)c3cnn(C4CCN(C(=O)c5ccc(F)cc5)CC4)c3n2)cc1 [Compound 689, methyl (4-{1-[1-(4-fluorobenzoyl)piperidin-4-yl]-4-morpholin-4-yl-1H-pyrazolo[3,4-d]pyrimidin-6-yl}phenyl)carbamate]
11 | 888 | COC(=O)Nc1ccc(-c2nc(N3CCOCC3)c3cnn(C4CCN(C(=O)c5ccccc5OC)CC4)c3n2)cc1 [Compound 690, methyl (4-{1-[1-(2-methoxybenzoyl)piperidin-4-yl]-4-morpholin-4-yl-1H-pyrazolo[3,4-d]pyrimidin-6-yl}phenyl)carbamate]
12 | 725 | COC(=O)Nc1ccc(-c2nc(N3CCOCC3)c3cnn(C4CCN(C(=O)N5CCN(C)CC5)CC4)c3n2)cc1 [Compound 692, methyl [4-(1-{1-[(4-methylpiperazin-1-yl)carbonyl]piperidin-4-yl}-4-morpholin-4-yl-1H-pyrazolo[3,4-d]pyrimidin-6-yl)phenyl]carbamate]
